Assay results: ChEMBL document CHEMBL5380834, “Design, Synthesis, and Biological Evaluation of Androgen Receptor (AR) Antagonist-Heat Shock Protein 90 (Hsp90) Inhibitor Conjugates for Targeted Therapy of Castration-Resistant Prostate Cancer” (J Med Chem, 2023)
pIC50: −log10 of the molar value. Calls of active or inactive are those of the source. No cut-off for these calls is given here.

How the values were obtained:
CWR22R [1] = test: Cytotoxicity against human 22Rv1 cells assessed as inhibition of cell growth incubated for 5 days in presence of AR agonist, R1881 by WST-1 assay; format: functional, cell-based; conditions: 22Rv1, 120 h
[2] = test system: Androgen receptor (Homo sapiens), P10275 [UNDEFINED MUTATION]; test: Induction of AR-V7 degradation in human 22Rv1 cells measured upto 24 hrs by Western blot analysis; format: cell-based; conditions: dose 1000.0 nM
LNCaP [3] = test: Downregulation of AR-regulated TMPRSS2 protein level in human LNCaP cells measured for 48 hrs in presence of AR agonist, R1881 in charcoal stripped serum by Western blot analysis; format: functional, cell-based; conditions: dose 300-1000 nM
LNCaP [4] = test: Downregulation of AR-regulated PSA protein level in human LNCaP cells measured for 48 hrs in presence of AR agonist, R1881 in charcoal stripped serum by Western blot analysis; format: functional, cell-based; conditions: dose 300-1000 nM
LNCaP [5] = test: Induction of apoptosis in human LNCaP cells assessed as increase in PARP level at 1 uM measured after 48 hrs by Western blot analysis; format: functional, cell-based
CWR22R [6] = test: Induction of apoptosis in human 22Rv1 cells assessed as increase in PARP level at 1 uM measured after 48 hrs by Western blot analysis; format: functional, cell-based
CWR22R [7] = test: Antitumor activity against human 22Rv1 cells xenografted in BALB/c nude mouse assessed as reduction in tumor growth at 5 mg/kg, ip administered once every 4th day for 3 weeks; format: functional, organism-based
CWR22R [8] = test: Antitumor activity against human 22Rv1 cells xenografted in BALB/c nude mouse assessed as downregulation of AR-FL level at 2.5 mg/kg, ip administered once every 4th day for 3 weeks; format: functional, organism-based
[9] = Toxicity in BALB/c nude mouse xenografted with human LNCaP cells assessed as animal weight loss at 5 mg/kg, ip administered once every 4th day for 3 weeks; format: organism-based; conditions: in vivo, 504 h
[10] = Toxicity in BALB/c nude mouse xenografted with human LNCaP cells assessed as animal weight loss at 2.5 mg/kg, ip administered once every 4th day for 3 weeks; format: organism-based; conditions: in vivo, 504 h
LNCaP [11] = test: Antitumor activity against human LNCaP cells xenografted in BALB/c nude mouse assessed as downregulation of AR-FL level at 5 mg/kg, ip administered once every 4th day for 3 weeks and measured at 2 hrs post dose; format: functional, organism-based
LNCaP [12] = test: Antitumor activity against human LNCaP cells xenografted in BALB/c nude mouse assessed as downregulation of PSA level at 5 mg/kg, ip administered once every 4th day for 3 weeks and measured at 2 hrs post dose; format: functional, organism-based
[13] = Biodistribution in BALB/c mouse prostate gland xenografted with human 22Rv1 cells at 2.5 mg/kg, iv measured at 0.5 to 1 hrs; format: ADME, organism-based, CWR22R; conditions: in vivo, time 0.5-1 hrs
[14] = Biodistribution in BALB/c mouse muscle tissue xenografted with human 22Rv1 cells at 2.5 mg/kg, iv measured at 0.5 to 1 hrs; format: ADME, organism-based, CWR22R; conditions: in vivo, time 0.5-1 hrs
[15] = Biodistribution in BALB/c mouse spleen xenografted with human 22Rv1 cells at 2.5 mg/kg, iv measured at 0.5 to 1 hrs; format: ADME, organism-based, CWR22R; conditions: in vivo, time 0.5-1 hrs
[16] = Biodistribution in BALB/c mouse kidney xenografted with human 22Rv1 cells at 2.5 mg/kg, iv measured at 0.5 to 1 hrs; format: ADME, organism-based, CWR22R; conditions: in vivo, time 0.5-1 hrs
[17] = Biodistribution in BALB/c mouse tumor xenografted with human 22Rv1 cells at 2.5 mg/kg, iv measured at 12 hrs; format: ADME, organism-based, Neoplasm, CWR22R; conditions: in vivo
[18] = Toxicity in ICR mouse assessed as lung damage at 30 to 50 mg/kg, iv administered every second day for 14 days; format: organism-based; conditions: in vivo, 336 h, dose 30-50 mg/kg, time 14 day
[19] = Toxicity in ICR mouse assessed as heart damage at 30 to 50 mg/kg, iv administered every second day for 14 days; format: organism-based; conditions: in vivo, 336 h, dose 30-50 mg/kg, time 14 day
[20] = Toxicity in ICR mouse assessed as testis damage at 30 to 50 mg/kg, iv administered every second day for 14 days; format: organism-based; conditions: in vivo, 336 h, dose 30-50 mg/kg, time 14 day

Sequence of Androgen receptor (Homo sapiens), P10275 [UNDEFINED MUTATION] (P10275 whole entry, looked up, change not shown): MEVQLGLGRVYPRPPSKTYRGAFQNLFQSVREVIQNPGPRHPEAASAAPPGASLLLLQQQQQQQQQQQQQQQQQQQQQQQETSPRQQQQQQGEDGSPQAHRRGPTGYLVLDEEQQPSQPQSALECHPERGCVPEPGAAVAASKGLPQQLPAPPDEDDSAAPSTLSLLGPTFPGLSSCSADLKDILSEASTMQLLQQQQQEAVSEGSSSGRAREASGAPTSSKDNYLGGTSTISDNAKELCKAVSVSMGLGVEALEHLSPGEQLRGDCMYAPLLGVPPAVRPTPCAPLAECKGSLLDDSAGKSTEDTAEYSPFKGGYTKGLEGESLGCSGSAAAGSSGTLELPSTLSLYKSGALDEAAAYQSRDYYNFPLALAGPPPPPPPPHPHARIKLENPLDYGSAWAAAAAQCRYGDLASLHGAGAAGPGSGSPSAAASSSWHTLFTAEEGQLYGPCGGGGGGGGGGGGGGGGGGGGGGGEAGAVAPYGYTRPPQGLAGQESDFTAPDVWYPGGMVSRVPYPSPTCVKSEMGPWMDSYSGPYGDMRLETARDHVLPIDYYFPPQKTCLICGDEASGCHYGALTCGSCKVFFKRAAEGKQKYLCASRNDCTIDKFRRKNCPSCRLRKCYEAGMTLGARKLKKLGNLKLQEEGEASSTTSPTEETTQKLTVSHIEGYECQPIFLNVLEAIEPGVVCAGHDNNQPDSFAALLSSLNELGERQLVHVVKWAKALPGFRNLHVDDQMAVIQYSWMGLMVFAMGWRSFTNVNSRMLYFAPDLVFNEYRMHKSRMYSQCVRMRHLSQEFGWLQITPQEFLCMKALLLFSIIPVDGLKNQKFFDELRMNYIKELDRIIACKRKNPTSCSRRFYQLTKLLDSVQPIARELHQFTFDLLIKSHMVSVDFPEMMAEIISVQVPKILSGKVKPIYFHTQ

- Activity [2]: Dose-Dependent Effect
- Drug uptake [13]: Active
- Drug uptake [14]: Active
- Drug uptake [15]: Active
- Drug uptake [16]: Active
- Drug uptake [17]: Active
Compound: CC(C)c1cc(-c2n[nH]c(=O)n2-c2ccc(CN3CCN(CC4CCN(c5ccc(C(=O)N[C@H]6CC[C@H](Oc7ccc(C#N)c(Cl)c7)CC6)nn5)CC4)CC3)cc2)c(O)cc1O
- pIC50 (CWR22R [1]): 7.58
- Activity (LNCaP [3]): Dose-Dependent Effect
- Activity (LNCaP [4]): Dose-Dependent Effect
- Activity (LNCaP [5]): Active
- Activity (CWR22R [6]): Active
- Activity (CWR22R [7]): Active
- Activity (CWR22R [8]): Active
- Activity [9]: 10%
- Activity [10]: 10%
- Activity (LNCaP [11]): Active
- Activity (LNCaP [12]): Active
- Activity [18]: Non-Toxic
- Activity [19]: Non-Toxic
- Activity [20]: Non-Toxic
